Source: patent publication EP0174162A2, “Pharmaceutically active dipeptide derivatives” (THE WELLCOME FOUNDATION LIMITED, priority 1984, dated 1986)

Legend:
[1] = tested on: uninephrectomised, contralateral renal stenotic conscious beagle dogs; test: Antihypertensive activity in uninephrectomised, contralateral renal stenotic conscious beagle dogs; type: in vivo; settings: doses in the range 1-3 mgkg^-1 intravenously
isolated enzyme = isolated enzyme (Homo sapiens, UniProt P12821); test: ACE inhibition on isolated enzyme; type: biochemical; settings: read-out: apparent IC50 on isolated enzyme
[2] = tested on: isoprenaline induced tachycardia; test: Effect on heart rate: isoprenaline induced tachycardia in pithed rats; type: in vivo; settings: doses 10-100 µgkg^-1min^-1 displaced isoprenaline dose response curves rightwards
Procedure: Doses 10-100 µgkg^-1min^-1 effectively displaced in a rightwards fashion, isoprenaline dose response curves.

ACE = biological target: T1, ACE (Rattus norvegicus, UniProt P47820); test: ACE inhibition in vivo: angiotensin I induced pressor responses in pithed rats; settings: doses 1-100 µgkg^-1min displaced angiotensin I dose response curves rightwards
T1 construct: in pithed rats; from tissue; host or cells: whole animal (pithed rat)
T1 sequence (P47820 36-1313): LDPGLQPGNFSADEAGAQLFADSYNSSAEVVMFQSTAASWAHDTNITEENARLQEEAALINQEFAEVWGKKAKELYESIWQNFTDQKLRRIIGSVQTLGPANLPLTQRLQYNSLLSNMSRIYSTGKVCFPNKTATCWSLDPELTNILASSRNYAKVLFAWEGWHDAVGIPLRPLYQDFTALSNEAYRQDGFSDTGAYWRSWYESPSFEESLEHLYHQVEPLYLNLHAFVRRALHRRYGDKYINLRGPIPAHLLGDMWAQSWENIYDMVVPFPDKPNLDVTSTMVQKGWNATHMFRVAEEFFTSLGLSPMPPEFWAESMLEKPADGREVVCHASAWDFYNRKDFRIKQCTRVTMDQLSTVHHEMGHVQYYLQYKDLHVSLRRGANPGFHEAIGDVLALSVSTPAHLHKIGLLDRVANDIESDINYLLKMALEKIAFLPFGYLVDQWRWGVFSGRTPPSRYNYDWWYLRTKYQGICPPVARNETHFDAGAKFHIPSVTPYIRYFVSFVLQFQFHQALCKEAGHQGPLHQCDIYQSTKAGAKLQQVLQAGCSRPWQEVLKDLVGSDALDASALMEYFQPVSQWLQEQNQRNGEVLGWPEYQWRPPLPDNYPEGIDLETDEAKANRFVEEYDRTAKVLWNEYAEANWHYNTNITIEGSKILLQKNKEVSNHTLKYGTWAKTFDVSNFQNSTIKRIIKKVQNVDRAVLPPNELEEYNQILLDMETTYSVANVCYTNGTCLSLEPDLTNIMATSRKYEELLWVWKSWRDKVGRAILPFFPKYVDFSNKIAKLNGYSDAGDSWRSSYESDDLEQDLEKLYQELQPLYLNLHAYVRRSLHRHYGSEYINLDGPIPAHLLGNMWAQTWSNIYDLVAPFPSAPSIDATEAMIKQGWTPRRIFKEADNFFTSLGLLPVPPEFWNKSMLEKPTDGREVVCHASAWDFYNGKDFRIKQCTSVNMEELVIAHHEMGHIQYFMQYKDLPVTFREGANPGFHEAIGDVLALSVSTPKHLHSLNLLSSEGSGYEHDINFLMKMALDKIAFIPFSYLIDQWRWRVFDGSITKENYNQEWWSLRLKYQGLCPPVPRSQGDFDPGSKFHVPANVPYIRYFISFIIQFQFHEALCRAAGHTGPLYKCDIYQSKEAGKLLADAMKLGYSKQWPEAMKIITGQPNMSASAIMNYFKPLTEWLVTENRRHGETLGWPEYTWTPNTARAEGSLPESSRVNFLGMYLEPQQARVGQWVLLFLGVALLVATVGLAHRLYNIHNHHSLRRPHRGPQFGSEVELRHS
Procedure: Doses 1-100 µgkg^-1min effectively displaced in a rightwards fashion, angiotensin I dose response curves.

[3] = tested on: salt depleted conscious beagle dogs; test: Antihypertensive activity in salt depleted conscious beagle dogs; type: in vivo; settings: intravenous administration, doses in the range 1-3 mgkg^-1

Chain of isolated enzyme (P12821 30-1306): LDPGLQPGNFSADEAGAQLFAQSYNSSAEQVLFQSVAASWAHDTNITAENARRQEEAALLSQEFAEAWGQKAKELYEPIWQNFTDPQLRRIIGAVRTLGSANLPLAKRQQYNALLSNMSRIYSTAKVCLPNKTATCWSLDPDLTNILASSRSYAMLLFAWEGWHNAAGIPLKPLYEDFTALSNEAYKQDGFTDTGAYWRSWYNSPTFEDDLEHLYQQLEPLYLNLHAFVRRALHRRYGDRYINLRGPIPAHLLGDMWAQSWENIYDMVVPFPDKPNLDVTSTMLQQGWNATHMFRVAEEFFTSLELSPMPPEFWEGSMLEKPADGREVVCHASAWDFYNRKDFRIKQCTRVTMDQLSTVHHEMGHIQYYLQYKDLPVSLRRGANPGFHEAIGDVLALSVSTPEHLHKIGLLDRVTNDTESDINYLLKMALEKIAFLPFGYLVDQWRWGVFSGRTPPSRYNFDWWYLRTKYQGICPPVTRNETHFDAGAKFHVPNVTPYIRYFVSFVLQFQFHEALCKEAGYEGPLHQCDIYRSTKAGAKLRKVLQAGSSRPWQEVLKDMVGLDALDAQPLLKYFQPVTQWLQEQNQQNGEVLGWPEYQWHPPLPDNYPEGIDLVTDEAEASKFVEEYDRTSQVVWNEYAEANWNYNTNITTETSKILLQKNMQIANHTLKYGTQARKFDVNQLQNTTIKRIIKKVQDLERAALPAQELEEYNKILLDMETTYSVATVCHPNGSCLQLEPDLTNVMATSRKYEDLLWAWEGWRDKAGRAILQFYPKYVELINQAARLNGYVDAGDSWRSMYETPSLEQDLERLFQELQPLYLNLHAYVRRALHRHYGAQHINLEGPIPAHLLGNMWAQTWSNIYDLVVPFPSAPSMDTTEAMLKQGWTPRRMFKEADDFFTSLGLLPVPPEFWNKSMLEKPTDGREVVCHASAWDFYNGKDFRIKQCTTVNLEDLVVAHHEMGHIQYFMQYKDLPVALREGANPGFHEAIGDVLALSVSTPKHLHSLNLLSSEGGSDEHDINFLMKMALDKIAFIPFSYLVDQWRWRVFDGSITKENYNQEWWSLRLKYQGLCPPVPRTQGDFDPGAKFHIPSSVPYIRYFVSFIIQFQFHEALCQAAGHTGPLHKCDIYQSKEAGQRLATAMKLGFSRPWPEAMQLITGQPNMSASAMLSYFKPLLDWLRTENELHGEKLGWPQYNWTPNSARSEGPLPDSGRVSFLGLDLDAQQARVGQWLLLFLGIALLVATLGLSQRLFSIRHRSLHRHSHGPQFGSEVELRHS

In the case of `CC(C)NCC(O)COc1cccc2[nH]c(C(=O)NCCCC[C@H](NC(C)C(=O)N3CCC[C@H]3C(=O)O)C(=O)O)cc12` (some centres unmarked) [Example 1], the hypotensive activity [1] is reported as “marked hypotensive activity”, the IC50 (isolated enzyme) is reported as 11 nM and the “inhibition of isoprenaline induced tachycardia” value [2] is reported as “inhibit in a dose dependent fashion”. For the same compound, the “inhibition of angiotensin I induced pressor responses” value (ACE) was “inhibit in a dose dependent fashion” and the blood pressure [3] was “reduce blood pressure”.
